Experimental findings from ChEMBL document CHEMBL1145293, “Synthesis and SAR of GlyT1 inhibitors derived from a series of N-((4-(morpholine-4-carbonyl)-1-(propylsulfonyl)piperidin-4-yl)methyl)benzamides” (Bioorg Med Chem Lett, 2006) are described below.

As a reminder, the IC50 is the concentration needed to halve the response being measured. Read a low IC50 as greater potency. Broadly, the clearance is the rate of elimination divided by the concentration. Lower therefore signals a low capacity for elimination. A word on the half-life: it is the time in which the quantity being followed falls by half. Higher therefore signals slow loss. One may read the solubility as how much of the substance goes into solution per volume. Broadly, the logP is the decadic logarithm of the partition coefficient of the neutral form, usually between octanol and water. Lower therefore signals lower lipophilicity.

For data set [1], the system named is Caco-2. Kind of data set: Ratio of permeability from basolateral to apical over apical to basolateral side of Caco-2 cell expressing human p-glycoprotein. The format is ADME, cell-based. (In general: Passage across Caco-2 layers is used to estimate intestinal permeability.)
Data set [2] has as its target T1, Sodium- and chloride-dependent glycine transporter 1 (Homo sapiens, UniProt P48067).
T1 sequence (P48067 whole entry): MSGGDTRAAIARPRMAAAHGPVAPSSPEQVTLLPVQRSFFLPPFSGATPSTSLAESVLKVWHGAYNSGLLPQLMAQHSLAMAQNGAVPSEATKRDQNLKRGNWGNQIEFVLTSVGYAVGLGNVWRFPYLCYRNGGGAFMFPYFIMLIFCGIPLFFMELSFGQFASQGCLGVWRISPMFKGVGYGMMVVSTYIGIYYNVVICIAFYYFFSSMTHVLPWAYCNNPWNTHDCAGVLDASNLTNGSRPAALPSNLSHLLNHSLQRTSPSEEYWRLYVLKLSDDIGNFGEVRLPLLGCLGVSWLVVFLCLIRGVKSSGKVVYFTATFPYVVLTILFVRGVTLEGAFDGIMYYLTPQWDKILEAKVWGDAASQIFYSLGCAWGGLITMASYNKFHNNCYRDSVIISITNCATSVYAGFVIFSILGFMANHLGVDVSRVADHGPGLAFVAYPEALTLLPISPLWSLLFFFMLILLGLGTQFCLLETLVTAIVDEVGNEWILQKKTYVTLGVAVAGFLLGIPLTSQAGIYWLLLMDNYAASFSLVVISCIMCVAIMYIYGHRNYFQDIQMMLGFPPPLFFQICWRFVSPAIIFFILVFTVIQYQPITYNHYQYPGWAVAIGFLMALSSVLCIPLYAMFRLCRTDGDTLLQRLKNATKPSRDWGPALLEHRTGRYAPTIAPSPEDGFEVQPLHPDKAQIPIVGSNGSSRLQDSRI
In words: Inhibition of human GlyT1.

Data set [3] concerns Caco-2. In words: Ratio of permeability from basolateral to apical over apical to basolateral side of Caco-2 cell expressing mouse p-glycoprotein. The format is ADME, cell-based. To be noted: human.
Data set [4] has as its target T2, Sodium- and chloride-dependent glycine transporter 2 (Homo sapiens, UniProt Q9Y345).
T2 sequence (Q9Y345 whole entry): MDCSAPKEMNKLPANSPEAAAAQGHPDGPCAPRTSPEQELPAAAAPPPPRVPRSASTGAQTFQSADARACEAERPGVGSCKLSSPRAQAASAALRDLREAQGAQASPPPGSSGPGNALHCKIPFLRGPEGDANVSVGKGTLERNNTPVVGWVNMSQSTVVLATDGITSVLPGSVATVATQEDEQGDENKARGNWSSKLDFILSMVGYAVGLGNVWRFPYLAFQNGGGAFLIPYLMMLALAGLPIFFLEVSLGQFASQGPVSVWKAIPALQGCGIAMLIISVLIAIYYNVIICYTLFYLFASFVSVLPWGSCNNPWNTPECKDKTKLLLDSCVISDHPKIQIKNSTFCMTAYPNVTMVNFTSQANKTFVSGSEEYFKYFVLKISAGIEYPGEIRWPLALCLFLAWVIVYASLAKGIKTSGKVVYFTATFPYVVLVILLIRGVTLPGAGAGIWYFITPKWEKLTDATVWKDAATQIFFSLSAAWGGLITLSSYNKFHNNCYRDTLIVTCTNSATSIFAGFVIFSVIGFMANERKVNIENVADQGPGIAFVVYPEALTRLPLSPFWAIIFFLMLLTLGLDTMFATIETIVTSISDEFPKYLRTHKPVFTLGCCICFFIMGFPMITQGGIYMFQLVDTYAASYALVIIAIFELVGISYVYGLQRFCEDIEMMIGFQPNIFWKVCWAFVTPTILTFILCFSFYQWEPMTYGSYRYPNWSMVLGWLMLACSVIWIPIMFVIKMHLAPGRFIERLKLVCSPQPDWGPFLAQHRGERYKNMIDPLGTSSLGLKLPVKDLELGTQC
Kind of data set: Inhibition of human GlyT2.

Data set [5] can be described thus: Clearance in rat. The format is ADME, organism-based. To be noted: in vivo.
Data set [6] has as its target T3, Sodium- and chloride-dependent taurine transporter (Homo sapiens, UniProt P31641).
T3 sequence (P31641 whole entry): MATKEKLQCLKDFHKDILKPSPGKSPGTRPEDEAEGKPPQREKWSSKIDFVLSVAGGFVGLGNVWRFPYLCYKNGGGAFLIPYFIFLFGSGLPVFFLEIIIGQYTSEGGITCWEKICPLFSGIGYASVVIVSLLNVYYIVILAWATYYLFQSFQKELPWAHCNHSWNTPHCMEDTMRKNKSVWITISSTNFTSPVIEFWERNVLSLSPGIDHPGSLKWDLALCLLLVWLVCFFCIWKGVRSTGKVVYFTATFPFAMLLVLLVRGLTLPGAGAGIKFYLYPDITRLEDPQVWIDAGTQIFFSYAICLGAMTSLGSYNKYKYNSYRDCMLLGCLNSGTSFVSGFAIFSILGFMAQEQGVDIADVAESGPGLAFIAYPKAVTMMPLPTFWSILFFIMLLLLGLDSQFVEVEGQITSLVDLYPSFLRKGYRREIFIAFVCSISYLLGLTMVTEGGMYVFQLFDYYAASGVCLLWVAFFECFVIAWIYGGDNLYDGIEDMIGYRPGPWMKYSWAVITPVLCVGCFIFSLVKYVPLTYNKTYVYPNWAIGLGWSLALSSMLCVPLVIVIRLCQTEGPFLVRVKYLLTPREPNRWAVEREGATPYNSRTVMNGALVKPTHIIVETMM
In words: Inhibition of human TauT.

Another data set addresses Cytochrome P450 2D6 (Homo sapiens, UniProt P10635). Kind of data set: Inhibition of CYP2D6. The format is ADME.
The nature of data set [7]: Half life in rat. The format is ADME, organism-based. To be noted: in vivo.
The nature of data set [8]: Aqueous solubility of the compound. The format is physicochemical.
A further data set has as its target Cytochrome P450 2C9 (Homo sapiens, UniProt P11712). Kind of data set: Inhibition of CYP2C9. The format is ADME.
A short description of data set [9]: Partition coefficient, log P of the compound. To be noted: octanol/water. The format is physicochemical.

≈ marks a conversion by molar mass, not a printed value.

Sequence of Cytochrome P450 2D6 (P10635 whole entry): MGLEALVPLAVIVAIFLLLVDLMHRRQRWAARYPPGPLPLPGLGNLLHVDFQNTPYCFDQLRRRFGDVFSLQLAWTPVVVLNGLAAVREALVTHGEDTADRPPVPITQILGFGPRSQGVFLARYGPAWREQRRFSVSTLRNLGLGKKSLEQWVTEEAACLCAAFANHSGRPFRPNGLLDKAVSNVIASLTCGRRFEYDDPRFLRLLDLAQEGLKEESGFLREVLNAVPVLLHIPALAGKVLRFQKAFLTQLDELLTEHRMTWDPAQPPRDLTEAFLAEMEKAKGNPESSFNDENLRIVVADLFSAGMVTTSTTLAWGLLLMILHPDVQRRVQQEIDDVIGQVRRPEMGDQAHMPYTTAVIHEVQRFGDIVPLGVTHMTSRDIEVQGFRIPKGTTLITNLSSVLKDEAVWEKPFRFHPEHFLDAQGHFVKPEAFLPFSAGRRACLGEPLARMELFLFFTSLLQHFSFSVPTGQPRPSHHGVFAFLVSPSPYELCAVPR
Sequence of Cytochrome P450 2C9 (P11712 whole entry): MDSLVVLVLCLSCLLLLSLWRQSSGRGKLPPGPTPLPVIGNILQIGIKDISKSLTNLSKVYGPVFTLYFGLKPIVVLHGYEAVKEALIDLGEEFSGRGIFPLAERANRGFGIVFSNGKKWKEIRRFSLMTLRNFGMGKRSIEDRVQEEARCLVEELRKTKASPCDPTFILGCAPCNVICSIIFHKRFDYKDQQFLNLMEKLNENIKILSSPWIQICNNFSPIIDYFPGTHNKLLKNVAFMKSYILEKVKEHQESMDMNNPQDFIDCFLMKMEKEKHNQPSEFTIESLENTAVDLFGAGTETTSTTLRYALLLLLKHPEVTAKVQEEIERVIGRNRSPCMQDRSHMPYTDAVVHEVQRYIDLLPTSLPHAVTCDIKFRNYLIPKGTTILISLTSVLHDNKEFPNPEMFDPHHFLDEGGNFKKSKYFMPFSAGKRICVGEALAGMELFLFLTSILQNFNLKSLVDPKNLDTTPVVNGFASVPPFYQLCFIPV

As for `CCCS(=O)(=O)N1CCC(CNC(=O)c2ccccc2Cl)(C(=O)N2CCOCC2)CC1`, the results for the Ratio in the data set with Caco-2 [1] and in the data set on Caco-2 [3] were 10.6 and 8.9, respectively. The IC50 in [2] is 0.0097 µM; in data set [4], above 30 µM; in [6], above 30 µM. The same compound showed a clearance in data set [5] of 18 mL/min/kg. Moreover, the Activity result at Cytochrome P450 2D6 and at Cytochrome P450 2C9 was “Not Active” each time. This compound also gave a half-life in data set [7] of 18 min. This compound had a solubility in data set [8] of 10000 µg/mL (≈ 21.2 mM). In data set [9], this compound displayed a logP below 1.4.
As for `CCCS(=O)(=O)N1CCC(CNC(=O)c2c(F)ccc(Cl)c2F)(C(=O)N2CCOCC2)CC1`, the Ratio was found to be 10.6 in the data set with Caco-2 [1] and 8.9 with Caco-2 [3]. Moreover, the IC50 was 0.0084 µM in data set [2], above 30 µM in data set [4] and above 30 µM in data set [6]. Besides, the clearance in data set [5] was found to be 18 mL/min/kg. In addition, the Activity result on Cytochrome P450 2D6 and on Cytochrome P450 2C9 was “Not Active” throughout. The half-life in data set [7] is 18 min. The solubility in data set [8] was 10000 µg/mL (≈ 19.7 mM). The compound also showed a logP in [9] below 1.4.
Turning to `CCCS(=O)(=O)N1CCC(CNC(=O)c2ccc(F)cc2Cl)(C(=O)N2CCOCC2)CC1`, the Ratio is 10.6 in the data set on Caco-2 [1] and 8.9 in the data set with Caco-2 [3]. Also, the IC50 in data set [2] is 0.0126 µM; in data set [4], above 30 µM; in [6], above 30 µM. Moreover, the clearance in [5] came out at 18 mL/min/kg. Besides, the Activity result at Cytochrome P450 2D6 and on Cytochrome P450 2C9 was “Not Active” throughout. The half-life in data set [7] is 18 min. The same compound showed a solubility in [8] of 10000 µg/mL (≈ 20.4 mM). The compound also had a logP in data set [9] below 1.4.
With `CCCS(=O)(=O)N1CCC(CNC(=O)c2cc(F)c(Cl)cc2Cl)(C(=O)N2CCOCC2)CC1`, the values for the Ratio with Caco-2 [1] and in the data set with Caco-2 [3] were 10.6 and 8.9, respectively. For the same compound, the half-maximal inhibitory concentration (IC50) in data set [2] was 0.0063 µM; in data set [4], above 30 µM; in data set [6], above 30 µM. Also, the clearance in data set [5] worked out at 18 mL/min/kg. The Activity entry on Cytochrome P450 2D6 and on Cytochrome P450 2C9 was “Not Active” throughout. The same compound had a half-life in data set [7] of 18 min. The amount in solution in data set [8] (solubility) came to 10000 µg/mL (≈ 19.1 mM). In [9], this compound showed a logP below 1.4.
Consider `CCCS(=O)(=O)N1CCC(CNC(=O)c2c(F)cccc2Cl)(C(=O)N2CCOCC2)CC1`, for which the figures for the Ratio with Caco-2 [1] and with Caco-2 [3] were 10.6 and 8.9, respectively. The half-maximal inhibitory concentration (IC50) was 0.0125 µM in data set [2], above 30 µM in data set [4] and above 30 µM in data set [6]. For the same compound, the clearance in data set [5] was found to be 18 mL/min/kg. In addition, the Activity result at Cytochrome P450 2D6 and on Cytochrome P450 2C9 was “Not Active” in each case. The compound further gave a half-life in [7] of 18 min. In addition, the solubility in [8] was 10000 µg/mL (≈ 20.4 mM). For the same compound, in [9], the logP is below 1.4.
For `CCCS(=O)(=O)N1CCC(CNC(=O)c2ccc(Cl)cc2Cl)(C(=O)N2CCOCC2)CC1`, the Ratio with Caco-2 [1] was 17.9; with Caco-2 [3], 11.4. Also, the IC50 is 0.0024 µM in data set [2], above 30 µM in data set [4] and above 30 µM in [6]. Besides, the clearance in [5] came out at 20.5 mL/min/kg. The Activity result at Cytochrome P450 2D6 and on Cytochrome P450 2C9 was “Not Active” throughout. The compound also gave a half-life in data set [7] of 22.2 min. Besides, in data set [8], the solubility is 18000 µg/mL (≈ 35.5 mM). The compound also showed a logP in [9] of 1.4.
